Measured values from US20090275555A1, “Substituted indole ligands for the ORL-1 receptor” (priority 2004, published 2009).
Counter-ions that a name gives are not always drawn. Like-named read-outs stand apart in the source and are kept apart here.

What was measured:
ORL-1 receptor [1] = target: T1, ORL-1 receptor (Cavia porcellus, UniProt P47748); experiment: Electrically stimulated guinea pig ileum (GPI) assay; format: cell-based
T1 construct: evaluated for ORL-1 functional activity in electrically stimulated guinea pig ileum; from tissue; host or cells: guinea pig ileum
T1 sequence (P47748 whole entry): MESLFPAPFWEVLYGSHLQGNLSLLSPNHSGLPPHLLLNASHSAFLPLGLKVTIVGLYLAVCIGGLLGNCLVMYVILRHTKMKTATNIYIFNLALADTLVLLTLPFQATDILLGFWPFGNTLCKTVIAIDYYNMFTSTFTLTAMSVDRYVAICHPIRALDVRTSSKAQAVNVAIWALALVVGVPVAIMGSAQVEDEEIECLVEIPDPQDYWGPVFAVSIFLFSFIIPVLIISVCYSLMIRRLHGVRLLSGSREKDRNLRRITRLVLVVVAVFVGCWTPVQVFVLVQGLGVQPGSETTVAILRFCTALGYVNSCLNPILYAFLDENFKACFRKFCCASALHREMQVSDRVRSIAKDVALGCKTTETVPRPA
Experimental: Compounds of the invention are evaluated for ORL-1 functional activity in electrically stimulated guinea pig ileum, in agreement with the experimental protocol described in Caló et. al., Br. J. Pharmacol. 129, 1183, (2000). The ORL-1 antagonist activity (pKb) is evaluated against the endogenous ORL-1 agonist N/OFQ.

ORL-1 receptor [2] = target: ORL-1 receptor (Homo sapiens, UniProt P41146); experiment: Receptor binding studies, radioligand [3H]-AcRYYRWK-NH2
Chain of ORL-1 receptor (Homo sapiens, UniProt P41146) (P41146 whole entry): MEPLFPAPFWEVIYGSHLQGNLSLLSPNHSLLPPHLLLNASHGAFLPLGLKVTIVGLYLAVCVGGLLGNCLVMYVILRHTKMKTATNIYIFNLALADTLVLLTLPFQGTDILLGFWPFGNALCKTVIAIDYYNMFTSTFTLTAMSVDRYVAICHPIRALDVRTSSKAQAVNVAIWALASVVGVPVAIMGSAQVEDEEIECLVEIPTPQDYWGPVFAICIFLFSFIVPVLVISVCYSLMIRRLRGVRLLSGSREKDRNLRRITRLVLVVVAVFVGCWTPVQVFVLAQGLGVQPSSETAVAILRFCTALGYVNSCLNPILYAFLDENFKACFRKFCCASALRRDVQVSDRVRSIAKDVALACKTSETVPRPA
Experimental: The receptor binding studies were carried out on 96-well plates; the incubation medium was Tris HCl pH 7.4 (4° C.) containing MgCl2 (5 mM), EGTA (0.2 mM), BSA (0.1%), with a final volume of 1.0 ml, using as radioligand [^3H]-AcRYYRWK-NH2 (Amersham, 103 Ci/mmol). The samples were incubated at 37° C. for 120 min. and were then filtered off via Whatman GF/B filters pre-treated with 0.2% polyethylenimine. The filters were washed three times with Tris HCl buffer pH 7.4 (4° C.). The radioactivity present on the filters was measured using a Packard Top Count microplate scintillation counter.

[3] = electrically stimulated guinea pig ileum, against the endogenous ORL-1 agonist N/OFQ, read-out: Antagonist activity (GPI) pKb vs N/OFQ (converted)
[4] = ORL-1 receptor, radioligand [3H]-AcRYYRWK-NH2, read-out: Binding affinity Ki

O=C(c1[nH]c2ccccc2c1CN1CCC(c2c(Cl)cccc2Cl)CC1)N1CCN(CCCO)CC1 [Example 75, {3-[4-(2,6-Dichloro-phenyl)-piperidin-1-ylmethyl]-1H-indol-2-yl}-[4-(3-hydroxy-propyl)-piperaizn-1-yl]-methanone]
Kb (ORL-1 receptor [1]; [3]): 3.02 nM | Ki (ORL-1 receptor [2]; [4]): 1.5 nM

Cc1cccc(C)c1C1CCN(Cc2c(C(=O)N3C[C@@H]4C[C@H]3CO4)[nH]c3ccccc23)CC1 [Example 96]
Kb (ORL-1 receptor [1]; [3]): 1.95 nM | Ki (ORL-1 receptor [2]; [4]): 10 nM

Cc1cccc(C)c1C1CCN(Cc2c(C(=O)N3CCN(CCOCCO)CC3)[nH]c3ccccc23)CC1 [Example 97, {3-[4-(2,6-Dimethyl-phenyl)-piperidin-1-ylmethyl]-1H-indol-2-yl}-{4-[2-(2-hydroxy-ethoxy)-ethyl]-piperazin-1-yl}-methanone]
Kb (ORL-1 receptor [1]): 1 nM | Ki (ORL-1 receptor [2]): 6.5 nM

Cc1cccc(C)c1C1CCN(Cc2c(C(=O)N3CCC4(CCN(C)C4)C3)[nH]c3ccccc23)CC1 (stereo not drawn) [Example 109, {3-[4-(2,6-Dimethyl-phenyl)-piperidin-1-ylmethyl]-1H-indol-2-yl}-(7-methyl-2,7-diaza-spiro[4.4]non-2-yl)-methanone]
Kb (ORL-1 receptor [1]; [3]): 1.23 nM | Ki (ORL-1 receptor [2]; [4]): 5.4 nM

NC(=O)Cn1c(-c2ccccc2)c(CN2CCC(c3c(Cl)cccc3Cl)CC2)c2ccccc21 [Example 143, 2-(3-[4-(2,6-Dichloro-phenyl)-piperidin-1-ylmethyl]-2-phenyl-indol-1-yl)-acetamide]
Kb (ORL-1 receptor [1]; [3]): 2.24 nM | Ki (ORL-1 receptor [2]; [4]): 3.2 nM

NC(=O)Cn1c(C(=O)N2CCOCC2)c(CN2CCC(c3c(Cl)cccc3Cl)CC2)c2ccccc21 [Example 150, 2-[3-[4-(2,6-Dichloro-phenyl)-piperidin-1-ylmethyl]-2-(morpholine-4-carbonyl)-indol-1-yl]-acetamide hydrochloride]
Kb (ORL-1 receptor [1]): 8.91 nM | Ki (ORL-1 receptor [2]; [4]): 8 nM

CN1CCC(NC(=O)Cn2c(-c3ccccc3)c(CN3CCC(c4c(Cl)cccc4Cl)CC3)c3ccccc32)CC1 [Example 160, 2-{3-[4-(2,6-Dichloro-phenyl)-piperidin-1-ylmethyl]-2-phenyl-indol-1-yl}-N-(1-methyl-piperidin-4-yl)-acetamide]
Kb (ORL-1 receptor [1]): 1.74 nM | Ki (ORL-1 receptor [2]): 0.7 nM

CN1CCC(NC(=O)Cn2c(C(=O)N3CCOCC3)c(CN3CCC(c4c(Cl)cccc4Cl)CC3)c3ccccc32)CC1 [Example 161, 2-[3-[4-(2,6-Dichloro-phenyl)-piperidin-1-ylmethyl]-2-(morpholine-4-carbonyl)-indol-1-yl]-N-(1-methyl-piperidin-4-yl)-acetamide dihydrochloride]
Kb (ORL-1 receptor [1]; [3]): 0.955 nM | Ki (ORL-1 receptor [2]; [4]): 8.2 nM

Cc1cccc(C)c1C1CCN(Cc2c(-c3ccccc3)n(CC(=O)NC3CCN(C)CC3)c3ccccc23)CC1 [Example 165, 2-{3-[4-(2,6-Dimethyl-phenyl)-piperidin-1-ylmethyl]-2-phenyl-indol-1-yl}-N-(1-methyl-piperidin-4-yl)-acetamide ditrifluoroacetate]
Kb (ORL-1 receptor [1]): 4.17 nM | Ki (ORL-1 receptor [2]; [4]): 4.6 nM
